Data as given in patent US8361962B2, “Tricyclic inhibitors of JAK” (Roche Palo Alto LLC, priority 2009, dated 2013).

Target: T1, h-jak3 (JAK3: Recombinant human kinase domain) (Homo sapiens, UniProt P52333)
T1 construct: JAK3: Recombinant human kinase domain from Millipore (Cat # 14-629); purchased Millipore 14-629
Experiment: Determination of IC50 of Janus Kinase (JAK) inhibition, radioactive end-point 33P-ATP assay, JAK3
Assay type: biochemical
Excerpt: Determination of IC50 of Janus Kinase (JAK) Inhibition:
Enzymes and peptide substrate used are described below: • JAK1: Recombinant human kinase domain from Invitrogen (Cat # PV4774) • JAK3: Recombinant human kinase domain from Millipore (Cat # 14-629) • JAK2: Recombinant human kinase domain from Millipore (Cat # 14-640) • Substrate: N-terminally biotinylated 14-mer peptide derived from activation loop of JAK1 with sequence of the peptide substrate: Biotin-KAIETDKEYYTVKD (SEQ ID NO: 1)
Assay conditions used are described below: • Assay Buffer: JAK Kinase Buffer: 50 mM Hepes [pH 7.2], 10 mM MgCl2, 1 mM DTT, 1 mg/ml BSA. The assay is carried out in this buffer. • Assay Format: The kinase activity of all three JAK kinases is measured using a radioactive, end-point assay and with trace amounts of ^33P-ATP. The assays are carried out in 96-well polypropylene plates. Experimental Method:
All concentrations are final in the reaction mixture and all incubations are carried at room temperature. Assay steps are described below: • Compounds are serially diluted in 100% DMSO typically at a 10× starting concentration of 1 mM. Final concentration of DMSO in the reaction is 10%. • Compounds are preincubated with enzyme (0.5 nM JAK3, 1 nM JAK2, 5 nM JAK1) for 10 minutes. • Reactions are initiated by the addition of a cocktail of the two substrates (ATP and peptide premixed in the JAK Kinase Buffer). In the JAK2/JAK3 assays, ATP and the peptide are used at concentrations of 1.5 uM and 50 uM, respectively. JAK1 assay is carried out at an ATP concentration of 10 uM and a peptide concentration of 50 uM. The duration of the assay for JAK2 and JAK3 is 20 minutes. JAK1 assay is carried out for 40 minutes. With all three enzymes, reactions are terminated by the addition of 0.5M EDTA to a final concentration of 100 mM. • 25 ul of terminated reactions are transferred to 150 ul of a 7.5% (v/v) slurry of streptavidin-coated sepharose beads in MgCl2- and CaCl2-free 1× Phosphate Buffered Saline containing 50 mM of EDTA in 96-well, 1.2 um MultiScreen-BV filter plates. After a 30-minute incubation, the beads are washed under vacuum with the following buffers: • 3 to 4 washes with 200 ul of 2M NaCl. • 3 to 4 washes with 200 ul of 2M NaCl plus 1% (v/v) phosphoric acid. • 1 wash with water. • Washed plates are dried in a 60° C. oven for between 1 to 2 hours. • 70 ul of Microscint 20 scintillation fluid is added to each well of filter plates and after at least 30 minutes of incubation, radioactive counts are measured in a Perkin Elmer microplate scintillation counter.

T1 sequence (P52333 822-1111 limits assumed): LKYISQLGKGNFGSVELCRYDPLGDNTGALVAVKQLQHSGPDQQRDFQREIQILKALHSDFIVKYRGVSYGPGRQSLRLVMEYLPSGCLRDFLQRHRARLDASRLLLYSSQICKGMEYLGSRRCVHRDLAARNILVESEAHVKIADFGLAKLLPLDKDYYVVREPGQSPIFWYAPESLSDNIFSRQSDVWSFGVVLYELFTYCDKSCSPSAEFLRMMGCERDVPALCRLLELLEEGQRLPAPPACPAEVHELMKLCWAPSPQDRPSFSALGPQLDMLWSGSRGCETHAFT

Row | SMILES | IC50 | Ki
1 | CCS(=O)(=O)N1CC[C@@H](C)[C@@H](c2nnc3cnc4[nH]ccc4n23)C1 [Compound I-7, 1-((3R,4R)-1-Ethanesulfonyl-4-methyl-piperidin-3-yl)-6H-2,3,5,6,8b-pentaaza-as-indacene] | 0.231 µM | 0.103 µM
2 | CCS(=O)(=O)N1CCC(C)[C@H](c2ccc3cnc4[nH]ccc4n23)C1 (stereo in doubt) [Compound I-5, 8-((3S,4S)-1-Ethanesulfonyl-4-methyl-piperidin-3-yl)-3H-3,4,8a-triaza-as-indacene] | 0.203 µM | 0.119 µM
3 | c1cc2c(ncc3cnc(C4CCCCC4)n32)[nH]1 [Compound I-10, 1-Cyclohexyl-6H-2,5,6,8b-tetraaza-as-indacene] | 0.093 µM | 0.0477 µM
4 | CC1CCCCN1c1ccc2cnc3[nH]ccc3n12 (centres unmarked) [Compound I-3, 8-(2-Methyl-piperidin-1-yl)-3H-3,4,8a-triaza-as-indacene] | 0.0399 µM | 0.0205 µM
5 | c1cc2c(ncc3ccc(C4CCCCC4)n32)[nH]1 [Compound I-2, 8-Cyclohexyl-3H-3,4,8a-triaza-as-indacene] | 0.0202 µM | 0.0104 µM

Further compounds by falling Ki, results first:

Row | IC50 | Ki | SMILES
6 | 0.449 µM | 0.225 µM | c1cc2c(ncc3nnc(C4CCCCC4)n32)[nH]1 [Compound I-8, 1-Cyclohexyl-6H-2,3,5,6,8b-pentaaza-as-indacene]
7 | 0.0693 µM | 0.0355 µM | C[C@H]1CCCC[C@H]1c1nnc2cnc3[nH]ccc3n12 [Compound I-6, 1-((1R,2S)-2-Methyl-cyclohexyl)-6H-2,3,5,6,8b-pentaaza-as-indacene]
8 | 0.025 µM | 0.0128 µM | C[C@H]1CCN(C(=O)CC#N)C[C@H]1c1nnc2cnc3[nH]ccc3n12 [Compound I-9, 3-[(3S,4S)-4-Methyl-3-(6H-2,3,5,6,8b-pentaaza-as-indacen-1-yl)-piperidin-1-yl]-3-oxo-propionitrile]
9 |  | 0.000964 µM | CCS(=O)(=O)N1CC[C@H](C)[C@H](c2ccc3cnc4[nH]ccc4n23)C1 [Compound I-4, 8-((3S,4S)-1-Ethanesulfonyl-4-methyl-piperidin-3-yl)-3H-3,4,8a-triaza-as-indacene]
